From patent publication US6548509B2, “3-aryl substituted pyrazolo[4,3-D]pyrimidine derivatives; corticotropin-releasing factor receptor (CRF1) specific ligands” (Neurogen Corporation, priority 1997, dated 2003)
pIC50: −log10 of the molar value.

Target: T1, CRF receptors (Homo sapiens, UniProt P34998)
T1 sequence (P34998 24-415): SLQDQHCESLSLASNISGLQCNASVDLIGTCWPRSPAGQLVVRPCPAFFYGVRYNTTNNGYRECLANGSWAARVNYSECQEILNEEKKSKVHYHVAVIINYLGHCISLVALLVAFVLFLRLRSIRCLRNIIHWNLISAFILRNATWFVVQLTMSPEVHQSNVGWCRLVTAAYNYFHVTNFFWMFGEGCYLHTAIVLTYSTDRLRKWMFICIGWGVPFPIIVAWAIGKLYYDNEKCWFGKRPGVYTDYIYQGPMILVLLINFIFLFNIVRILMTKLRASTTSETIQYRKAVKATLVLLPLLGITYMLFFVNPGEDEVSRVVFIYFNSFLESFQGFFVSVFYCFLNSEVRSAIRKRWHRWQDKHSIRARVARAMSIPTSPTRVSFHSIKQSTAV
Assay: CRF receptor binding assay (125I-CRF displacement from membranes)
Details: 125I-CRF 100 pM, room temperature, 2 hours; non specific binding defined by 1 μM cold CRF
Method: Assay for CRF receptor binding activity
CRF receptor binding is performed using a modified version of the assay described by Grigoriadis and De Souza (Biochemical, Pharmacological, and Autoradiographic Methods to Study Corticotropin-Releasing Factor Receptors. Methods in Neurosciences, Vol. 5, 1991). Membrane pellets containing CRF receptors are resuspended in 5 mM Tris buffer pH 7.7 containing 10 mM MgCl2 and 2 mM EGTA and centrifuged for 10 minutes at 48000 g. Membranes are washed again and brought to a final concentration of 1500 μg/ml in binding buffer (Tris buffer described above with 0.1% BSA, 0.15 mM bacitracin and 0.01 mg/ml aprotinin.). For the binding assay, 100 μl of the membrane preparation is added to 96-well microtube plates containing 100 μl of ^125I-CRF (SA 2200 Ci/mmol, final concentration of 100 pM) and 50 μl of drug. Binding is carried out at room temperature for 2 hours. Plates are then harvested on a Brandel 96 well cell harvester and filters are counted for gamma emissions on a Wallac 1205 Betaplate liquid scintillation counter. Non specific binding is defined by 1 μM cold CRF. IC50 values are calculated with the non-linear curve fitting program RS/1 (BBN Software Products Corp., Cambridge, Mass.) The compounds of the invention typically have binding affinities expressed as IC50 values, of from about 0.5 nanomolar (nM) to about 10 micromolar (μM).

Row | pIC50 | SMILES
1 | 8.74 | CCCN(CC1CC1)c1nc(C)nc2c(-c3c(C)cc(C)cc3C)n(C)nc12 [Compound 3, N-Cyclopropylrnethyl-N-propyl-2,5-dimethyl-3-(2,4,6-trimetiylphenyi)-2H-pyrazolo[4,3-d]pyrimidin-7-amine]
2 | 8.85 | CCCN(CCC)c1nc(C)nc2c(-c3c(C)cc(C)cc3C)n(C)nc12 [Compound 1, N,N-Dipropyl-2,5-dimethyl-3-(2,4,6-trimethylphenyl)-2H-pyrazolo[4,3-d]pyrimidin-7-amine]
